Measured values from patent US20070110720A1, “Vectors, mutant viruses and methods for generating mutant viruses” (priority 2003, published 2007).
“Also recorded” adds a separate entry of the source.

Key:
A2780 xenografts = assay: Naked DNA experiment: CMV-ntr plasmid and CB1954 in xenograft tumours; assay type: in vivo, mice; settings: single agent: CMV-ntr 0.2 mg DNA intratumoural Day 0, or CB1954 80 mg/kg intra-peritoneal Day 2
Experimental: In order to check the alterations in tumour growth are due to the virus itself and not a result of the CMV-ntr plasmid DNA that had been introduced to the HSV 1716 virus, an experiment was set up looking at the effect of the CMV-ntr plasmid DNA alone and in combination with the prodrug CB1954.
Mice were randomised into treatment groups of 6 animals each when tumour diameters are approximately 5 mm (this is Day 0). […] Two groups of mice were administered CMV-ntr plasmid by direct intratumoural injection at a dose of 0.2 mg DNA per injection. One of these groups was then administered with a single dose of 80 mg/kg of CB1954 on Day 2 by intra-peritoneal injection. […] Animals were weighed daily (FIG. 23) and daily caliper measurements performed until the tumour sizes were in the region of 20 mm by 20 mm. Tumour volumes were estimated from these measurements (volume=[…]) (FIG. 24). In addition any toxicity from these administered agents was determined.

A2780 xenograft = assay: Scheduling experiment: tumour volume after virus and CB1954; assay type: in vivo, athymic nude mice
Experimental: Mice were randomized into treatment groups (treatment regimes shown in Table 2) of 3 animals when tumour diameters were approximately 5 mm (tumour volume […]).
(§1) The treatment groups were administered with a single direct intratumoural injection of the virus and dose determined for that group. The virus was diluted PBS+10% serum. ‘No virus’ control groups received an intratumoural injection of 100 μl of PBS+10% serum. This day was designated as Experimental Day 0.
(§2) Injections of CB1954 were given to the appropriate groups at days 2, 10 and 15. A dose of 80 mg/kg—the equivalent of approx. 2 mg per mouse—was given. The powdered form of the CB1954 drug (from Sigma) was dissolved in acetone to 10% of the final volume (10 μl per 2 mg). The volume was then made up to 2 mg CB1954 in 100 μl using peanut oil. A syringe was used to mix the drug as peanut oil is thick and viscous. The drug was made up fresh every time.
(§3) The appropriate groups were then injected intra-peritoneal with this solution. Control groups which were not receiving drug were injected intra-peritoneal with a 100 μl solution of 10% acetone in peanut oil.

[1] = Scheduling experiment: tolerability of injections; assay type: in vivo, athymic nude mice; settings: 80 mg/kg intra-peritoneal in 10% acetone/peanut oil
Experimental: as §1
Some tumours bleed slightly after injection but not to a great degree. […] In all the tumours that bleed slightly, the following day the healing process had begun and within 3-5 days there was little evidence of any puncture wound on any tumour.
as §2, §3

C8161 cells = assay type: cell-based, human; settings: 50 μM CB1954 alone
confluent 3T6 cells = assay type: cell-based; settings: 50 μM CB1954 alone

In the case of `NC(=O)c1cc(N2CC2)c([N+](=O)[O-])cc1[N+](=O)[O-]` [CB1954], the “anti-tumour activity as determined by tumour regression” value (A2780 xenografts) is reported as “neither the CMV-ntr alone, CB1954 alone or the combination of both CMV-ntr and CB1954, has any anti-tumour activity”, the “effect on tumour growth” value (A2780 xenograft; CB1954 alone, 80 mg/kg intra-peritoneal, no virus (groups 5, 6, 7, 13)) is reported as “little effect on tumour growth” and the “tumour growth delay by timing of prodrug” value (A2780 xenograft; CB1954 given Day 2 post viral injection versus Day 10) is reported as “tumour growth was not delayed as much as if the drug was given at a later date”. For the same compound, the “body weight after intra-peritoneal injection” value [1] was “did not lose any body weight”, the “swelling or irritation at the site of injection” value [1] was “No swelling or irritation” and the cell death (C8161 cells) was “no effect”. The cell death (confluent 3T6 cells) was “no effect; also recorded: does not result in any significant cell death”.
